Reference: US11186588B2 (AYUMI PHARMACEUTICAL CORPORATION, priority 2017, dated 2021)

What was measured:
[1] = Pharmacokinetics test in rats (oral administration); format: in vivo, LEW/CrlCrlj rats; settings: mean n = 4; for AUCinf / AUCt / Cmax / Kel / MRT / T1/2 / Tmax: oral 2 mg/mL solution at 5 mL/kg; for Concentration (ng/mL), sampling time 0.5 h / Concentration (ng/mL), sampling time 1 h / Concentration (ng/mL), sampling time 3 h / Concentration (ng/mL), sampling time 6 h: plasma; for Concentration (ng/mL), sampling time 0.5 h: 0.5 h after oral 2 mg/mL solution at 5 mL/kg; for Concentration (ng/mL), sampling time 1 h: 1 h after oral 2 mg/mL solution at 5 mL/kg; for Concentration (ng/mL), sampling time 3 h: 3 h after oral 2 mg/mL solution at 5 mL/kg; for Concentration (ng/mL), sampling time 6 h: 6 h after oral 2 mg/mL solution at 5 mL/kg
Protocol: In order to evaluate the transition of plasma concentration of the present compound after oral administration, pharmacokinetics was evaluated in rats. The specific method is described below.
Appropriate amounts of Example 71 and various salts thereof were weighed, triturated with an agate mortar, and suspended or dissolved in 1% methyl cellulose solution to 2 mg/mL (as a converted quantity of Example 71 considering the correction of purify).
LEW/CrlCrlj rats (male, purchased form Charles River Laboratories Japan, Inc.) were weighted, a random number based on the measured body weight was used to avoid difference in average body weight among groups, and the rats were divided into groups, wherein each groups contained 4 rats. The rats were manually held in hands and forced orally administered each administration solution comprising the compound at a dose of 5 mL/kg into stomach using a feeding needle. At 0.5, 1, 3, 6 and 24 hours after the administration of each administration solution comprising the compound, the rats were manually held in hands, and blood was collected from the jugular vein or subclavian vein using a heparin-treated injection syringe. The obtained blood was centrifuged at 1,500 G for 10 minutes, and plasma was collected as an actual sample. In addition, plasma was collected from rats before the administration of the compound in the same manner, which was used as blank plasma. The collected actual samples and blank plasma were stored in a freezer set at −70° C. until the measurement of the compound concentration. To 20 μL of each actual sample were added 20 μL of acetonitrile (available from Kishida Chemical Co., Ltd., Cat No. 140-00401), 100 μL of MilliQ water and 20 μL of the internal standard solution to prepare an analytical sample. In addition, to 20 μL of blank plasma were added 20 μL or 40 μL of acetonitrile (available from Kishida Chemical Co., Ltd., Cat No. 140-00401) and 100 μL of MilliQ water (a blank sample or a zero sample, respectively). A standard sample for a calibration curve was prepared by mixing 20 μL of blank plasma, 20 μL of the standard solution for a calibration curve in each concentration, 100 μL of MilliQ water and 20 μL of the internal standard solution. Whole amount of the prepared each sample was applied to a diatomaceous earth column for liquid-liquid extraction (available from Biotage, Cat No. 820-0200), tert-butyl methyl ether (available from Kanto Chemical Co., Inc., Cat No. 04418-5B) was added and eluted by natural dropping, and the obtained eluate was concentrated to dryness under a nitrogen stream. The residue was dissolved in the re-dissolved solution and 10 μL of each sample was injected into the LC/MS/MS apparatus.
LC/MS/MS analysis was carried out under the following conditions. Analytical column: Hydrosphere C18, 3 μm, 2.0 mm I.D.×50 mm (from YMC, Cat No. HS12S03-0502WT)
Flow rate: 0.3 mL/min. Column temperature: 50° C. Peak area calculation, peak area ratio calculation, preparation of calibration and quantification used in calculating the concentration for the LC/MS/MS analysis were carried out by Analyst ver.1.6.2 (available from AB Sciex). In addition, by using the obtained concentration measurement results, these were analyzed by Non-compartmental model of a pharmacokinetics analysis program WinNonlin ver.6.1 (Pharsight Corporation), and the pharmacokinetics parameter was calculated.

IL-6 production = experiment: LPS-induced IL-6 production model test; format: in vivo, C57BL/6J mice; settings: 10 mg/kg oral, 30 min before LPS 1 mg/kg i.p., serum IL-6 60 min after LPS, mice
Protocol: In order to evaluate the inhibitory activity of inflammatory cytokine production in the present compounds, LPS-induced IL-6 production model evaluation was carried out. The specific method is described below.
An appropriate amount of each compound was weighed, triturated with an agate mortar, and suspended or dissolved in 1% methyl cellulose solution to prepare 1 mg/mL solution.
C57BL/6J mice (male, Purchaser: Charles River Laboratories Japan, Inc.) were weighted, before divided into normal group, control group and each compound-administered group based on the measured body weight using a random number, wherein each group contained 6 samples. The mice were manually held in hands and forced orally administered the 1% methyl cellulose solution (normal and control group) or each administration solution comprising the compound (each compound-administered group) at a dose of 10 mL/kg into stomach using a feeding needle. After 30 minutes from administration of the 1% methyl cellulose solution or each compound administration solution, the mice were manually held in hands and intraperitoneally administered physiological saline (normal group) or LPS solution (control and each compound-administered group) at a dose of 1 mg/kg. After 60 minutes from administration of the LPS solution, whole blood was collected from the abdominal vena cava of each mouse under isoflurane inhalation anesthesia (available from Mylan Seiyaku Ltd.), and the mice were euthanized. The collected blood was allowed to stand at room temperature for one hour, and then centrifuged at 1,500 G for 10 minutes to collect a serum (supernatant). The collected serum was stored in a deep freezer set at −80° C. until the measurement of IL-6 in the serum. The IL-6 concentration in the serum of each mouse was measured by a commercially available kit (available from R&D systems, Cat No. M6000B), according to the protocol attached thereto.
The IL-6 production inhibition rate (%) was calculated by the following equation using Microsoft EXCEL 2010. IL-6 production inhibition rate (%)=100−{(average value of IL-6 concentration in serum of each compound-administered group)−(average value of IL-6 concentration in serum of normal group))/(average value of IL-6 concentration in serum of control group)−(average value of IL-6 concentration in serum of normal group)}×100

Row | AUCinf [1] [ng·h/mL] | AUCt [1] [ng·h/mL] | Cmax [1] [ng/mL] | Kel [1] [h⁻¹] | MRT [1] [h] | T1/2 [1] [h] | Tmax [1] [h] | Concentration (ng/mL), sampling time 0.5 h [1] [ng/mL] | Concentration (ng/mL), sampling time 1 h [1] [ng/mL] | Concentration (ng/mL), sampling time 3 h [1] [ng/mL] | Concentration (ng/mL), sampling time 6 h [1] [ng/mL] | Compound | LPS-induced IL-6 production (% Inhibition @ 10 mg/kg) (IL-6 production) [%]
1 | 54.47 | 31.38 | 15.70 | 0.35 | 1.63 | 3.02 | 0.50 | 15.70 | 11.3 | 4.28 | 2.29 | CC(=O)Nc1ccc(C2=NN(Cc3cccnc3)c3nnc(C)n3-c3sc(C)c(C)c32)cc1.CC(=O)Nc1ccc(C2=NN(Cc3cccnc3)c3nnc(C)n3-c3sc(C)c(C)c32)cc1.O=C(O)/C=C/C(=O)O [0.5 Fumarate of Example 71] | 83.0
2 | 105.65 | 114.07 | 111.0 | 0.57 | 1.12 | 1.24 | 0.50 | 111.0 | 34.0 | 6.75 | 1.5 | CC(=O)Nc1ccc(C2=NN(Cc3cccnc3)c3nnc(C)n3-c3sc(C)c(C)c32)cc1.Cl [1 Hydrochloride of Example 71] | 82.7

The remaining lines, values behind:

Row | Compound | AUCinf [1] [ng·h/mL] | AUCt [1] [ng·h/mL] | Cmax [1] [ng/mL] | Kel [1] [h⁻¹] | MRT [1] [h] | T1/2 [1] [h] | Tmax [1] [h] | Concentration (ng/mL), sampling time 0.5 h [1] [ng/mL] | Concentration (ng/mL), sampling time 1 h [1] [ng/mL] | Concentration (ng/mL), sampling time 3 h [1] [ng/mL] | Concentration (ng/mL), sampling time 6 h [1] [ng/mL] | LPS-induced IL-6 production (% Inhibition @ 10 mg/kg) (IL-6 production) [%]
3 | CC(=O)Nc1ccc(C2=NN(Cc3cccnc3)c3nnc(C)n3-c3sc(C)c(C)c32)cc1.CC(=O)Nc1ccc(C2=NN(Cc3cccnc3)c3nnc(C)n3-c3sc(C)c(C)c32)cc1.O=C(O)CCC(=O)O [0.5 Succinate of Example 71] | 106.41 | 104.34 | 79.8 | 0.64 | 1.30 | 1.10 | 0.50 | 79.8 | 36.2 | 6.88 | 1.3 | 83.0
4 | CC(=O)Nc1ccc(C2=NN(Cc3cccnc3)c3nnc(C)n3-c3sc(C)c(C)c32)cc1.O=C(O)/C=C\C(=O)O [1 Maleate of Example 71] | 118.01 | 115.41 | 80.1 | 0.64 | 1.27 | 1.09 | 0.50 | 80.1 | 42.9 | 7.69 | 1.66 | 82.0
5 | CC(=O)Nc1ccc(C2=NN(Cc3cccnc3)c3nnc(C)n3-c3sc(C)c(C)c32)cc1.Cc1ccc(S(=O)(=O)O)cc1 [1 Tosylate of Example 71] | 101.11 | 95.75 | 62.1 | 0.52 | 1.48 | 1.42 | 0.50 | 62.1 | 34.7 | 7.04 | 2.46 | 85.0
